What was measured:
Assay type in all cases: in vivo
[1] = system: Spodoptera litura; assay: Example B: Spodoptera litura, diet incorporation method; conditions: third instar larvae, 96 h after release, dead and moribund combined, read-out: percent mortality
Procedure: (§1) Test solutions were prepared according to the procedure described herein below (500 PPM):
(§2) • 1. Eppendorf Vortex mixer (ThermoMixer C) and 1.5 mL Eppendorf tubes • 2. Beaker—100 mL • 3. Micro-pipette Reagents: • 1. Surfactant Solution • 2. De-mineralized (DM) Water Procedure: • 1. Weigh 10 mg of the compound of the present invention to be tested in an Eppendorf Tube. • 2. Add 200 mg of the Surfactant Solution into the tube. • 3. Fix the tube in Eppendorf Vortex mixer and start vortexing at 2000 rpm. • 4. Mix on Vortex mixer for 30 min. After 30 min, observe the sample over a microscope at 400× resolution. • 5. Add 1.0 mL DM water into the tube, close the cap, shake the tube thoroughly and transfer the contents, along with the beads, into a beaker. • 6. To rinse the tube, add another 1.0 mL of DM water into the tube, close the cap, shake well and transfer this into the same beaker. • 7. Repeat […] one more time so that the tube is rinsed well and all the compound of the present invention is transferred to the beaker. • 8. Add 16.8 mL of DM water into the beaker and stir well. • 9. Immediately use this sample for biological testing. • 10. Further dilutions can be prepared by taking appropriate quantity of the aliquot of Step 8, immediately after stirring, and diluting as per requirement. The sample solution must be well mixed just before biological testing.
(§3) Diet incorporation method was used, in which semi-synthetic diet was incorporated into the test solutions when the temperature is approximately 50° C. in the bioassay containers and stirred thoroughly for properly mixing and then was allowed to cool for 30 min. The solidified diet was cut into equal pieces, and then each piece was transferred in one cell in Bio-assay trays. A single third instar starved larva was released into each of these cells of bioassay trays and the tray was covered with the lid. The bio-assay trays were kept under laboratory conditions at a temperature of 25° C. and Relative Humidity of 70%. Observations on dead, moribund and live larvae were recorded at 96 h after the release of larvae. Percent mortality was calculated by combining dead and moribund larvae. The following compound numbers

[2] = system: Myzus persicae; assay: Example E: Myzus persicae, leaf dip method (capsicum leaves); conditions: foliar, third instar nymphs, 72 h after release, dead and moribund combined, read-out: percent mortality
Procedure: as §1, §2
Leaf dip method was used for screening, wherein the required quantity of the compounds were weighed and dissolved in the test solution into the tube and vortex at 2000 rpm with Zirconia beads for 90 min and for proper mixing, then mixed with 0.01% Triton-X solution to get the desired test concentration. Capsicum leaves were dipped in the solution for 10 seconds, shade dried for 20 min and then leaves were kept in glass units with petiole dipped in water. Known numbers of third instar nymphs were released and were kept in the plant growth chamber at a temperature of 25° C. and Relative Humidity of 70%. Observations on dead, moribund and live nymphs were recorded at 72 h after the release. Percent mortality was calculated by combining dead and moribund nymphs. The following compound numbers

[3] = system: Plutella xylostella; assay: whole plant or invertebrate; conditions: in Brassica oleracea, foliar, second instar larvae, 72 h after release, dead and moribund combined, read-out: percent mortality
Procedure: as §1, §2
Leaf dip method was used for screening, wherein the required quantity of the compounds were weighed and dissolved in the test solution into the tube and vortex at 2000 rpm with Zirconia beads for 90 min for proper mixing, then mixed with 0.01% Triton-X solution to get the desired test concentration. and Cabbage leaves were dipped in the solution for 10 seconds, shade dried for 20 min and then transferred to bioassay trays. Single second instar larvae were released into each cell and the tray was covered with lid. The bio-assay trays were kept under laboratory conditions at a temperature of 25° C. and Relative Humidity of 70%. Observations on dead, moribund and live larvae were recorded at 72 h after the release. Percent mortality was calculated by combining dead and moribund larvae. The following compound numbers

[4] = system: Helicoverpa armigera; assay: Example A: Helicoverpa armigera, diet incorporation method; conditions: third instar larvae, 96 h after release, dead and moribund combined, read-out: percent mortality
Procedure: as §1, §2
as §3, with “which the” for “which”, “solution” for “solutions”

SMILES | mortality at 300 ppm [1] | mortality at 300 ppm [2] | mortality at 300 ppm [3] | mortality at 300 ppm [4]
C=CCNC(=O)c1c(NC(=O)c2cc(N3CC(F)(F)C3)nn2-c2ncccc2Cl)c(C)cc2ccnn12 [Compound 87, N-allyl-6-(1-(3-chloropyridin-2-yl)-3-(3,3-difluoroazetidin-1-yl)-1H-pyrazole-5-carboxamido)-5-methylpyrazolo[1,5-a]pyridine-7-carboxamide] | > 70% | – | – | –
O=C(NCC(F)(F)F)c1cc(Cl)cc(Cl)c1NC(=O)c1cc(OC2CSC2)nn1-c1ncccc1Cl [Compound 132, 1-(3-chloropyridin-2-yl)-N-(2,4-dichloro-6-((2,2,2-trifluoroethyl)carbamoyl)phenyl)-3-(thietan-3-yloxy)-1H-pyrazole-5-carboxamide] | – | > 50% | – | –
CCNC(=O)c1c(NC(=O)c2cc(N3CC(F)(F)C3)nn2-c2ncccc2Cl)c(C)cc2ccnn12 [Compound 84, 6-(1-(3-chloropyridin-2-yl)-3-(3,3-difluoroazetidin-1-yl)-1H-pyrazole-5-carboxamido)-N-ethyl-5-methylpyrazolo[1,5-a]pyridine-7-carboxamide] | > 70% | – | – | –
C=CCNC(=O)c1cc(Cl)cc(C)c1NC(=O)c1cc(OC2CSC2)nn1-c1ncccc1Cl [Compound 98, N-(2-(allylcarbamoyl)-4-chloro-6-methylphenyl)-1-(3-chloropyridin-2-yl)-3-(thietan-3-yloxy)-1H-pyrazole-5-carboxamide] | – | > 50% | – | –
C=CCNC(=O)c1cc(Cl)cc(Br)c1NC(=O)c1cc(OC2CSC2)nn1-c1ncccc1Cl [Compound 92, N-(2-(allylcarbamoyl)-6-bromo-4-chlorophenyl)-1-(3-chloropyridin-2-yl)-3-(thietan-3-yloxy)-1H-pyrazole-5-carboxamide] | – | > 50% | – | –
Cc1cc(Cl)cc(C(=O)NC(C)C)c1NC(=O)c1cc(OC2C[S+]([O-])C2)nn1-c1ncccc1Cl (stereo not drawn) [Compound 117, N-(4-chloro-2-(isopropylcarbamoyl)-6-methylphenyl)-1-(3-chloropyridin-2-yl)-3-((1-oxidothietan-3-yl)oxy)-1H-pyrazole-5-carboxamide] | – | > 50% | – | –
CNC(=O)c1c(NC(=O)c2cc(N3CC(F)(F)C3)nn2-c2ncccc2Cl)c(C)cc2ccnn12 [Compound 79, 6-(1-(3-chloropyridin-2-yl)-3-(3,3-difluoroazetidin-1-yl)-1H-pyrazole-5-carboxamido)-N,5-dimethylpyrazolo[1,5-a]pyridine-7-carboxamide] | > 70% | – | > 70% | > 70%
Cc1cc2ccnn2c(C(=O)NC(C)C2CC2)c1NC(=O)c1cc(OC2CSC2)nn1-c1ncccc1Cl (stereo not drawn) [Compound 139, 6-(1-(3-chloropyridin-2-yl)-3-(thietan-3-yloxy)-1H-pyrazole-5-carboxamido)-N-(1-cyclopropylethyl)-5-methylpyrazolo[1,5-a]pyridine-7-carboxamide] | > 70% | – | – | > 70%
Cc1cc2ccnn2c(C(=O)NC2CC2)c1NC(=O)c1cc(OC2CSC2)nn1-c1ncccc1Cl [Compound 138, 6-(1-(3-chloropyridin-2-yl)-3-(thietan-3-yloxy)-1H-pyrazole-5-carboxamido)-N-cyclopropyl-5-methylpyrazolo[1,5-a]pyridine-7-carboxamide] | > 70% | – | – | –
Cc1cc(Cl)cc(C(=O)NC2CC2)c1NC(=O)c1cc(OC2C[S+]([O-])C2)nn1-c1ncccc1Cl (stereo not drawn) [Compound 128, N-(4-chloro-2-(cyclopropylcarbamoyl)-6-methylphenyl)-1-(3-chloropyridin-2-yl)-3-((1-oxidothietan-3-yl)oxy)-1H-pyrazole-5-carboxamide] | – | > 50% | – | –
CONC(=O)c1c(NC(=O)c2cc(N3CC(F)(F)C3)nn2-c2ncccc2Cl)c(C)cc2ccnn12 [Compound 85, 6-(1-(3-chloropyridin-2-yl)-3-(3,3-difluoroazetidin-1-yl)-1H-pyrazole-5-carboxamido)-N-methoxy-5-methylpyrazolo[1,5-a]pyridine-7-carboxamide] | – | – | > 70% | > 70%
CONC(=O)c1cc(Cl)cc(Br)c1NC(=O)c1cc(OC2CSC2)nn1-c1ncccc1Cl [Compound 91, N-(2-bromo-4-chloro-6-(methoxycarbamoyl)phenyl)-1-(3-chloropyridin-2-yl)-3-(thietan-3-yloxy)-1H-pyrazole-5-carboxamide] | – | > 50% | – | –
CC(C)(C)NC(=O)c1cc(Cl)cc(Br)c1NC(=O)c1cc(OC2CSC2)nn1-c1ncccc1Cl [Compound 45, N-(2-bromo-6-(tert-butylcarbamoyl)-4-chlorophenyl)-1-(3-chloropyridin-2-yl)-3-(thietan-3-yloxy)-1H-pyrazole-5-carboxamide] | – | > 50% | – | –
Cc1cc2ccnn2c(C(=O)NCC2CC2)c1NC(=O)c1cc(OC2CSC2)nn1-c1ncccc1Cl [Compound 80, 6-(1-(3-chloropyridin-2-yl)-3-(thietan-3-yloxy)-1H-pyrazole-5-carboxamido)-N-(cyclopropylmethyl)-5-methylpyrazolo[1,5-a]pyridine-7-carboxamide] | > 70% | – | > 70% | > 70%
Cc1cc2ccnn2c(C(=O)NCC2CC2)c1NC(=O)c1cc(N2CC(F)(F)C2)nn1-c1ncccc1Cl [Compound 78, 6-(1-(3-chloropyridin-2-yl)-3-(3,3-difluoroazetidin-1-yl)-1H-pyrazole-5-carboxamido)-N-(cyclopropylmethyl)-5-methylpyrazolo[1,5-a]pyridine-7-carboxamide] | > 70% | – | > 70% | > 70%
COCCNC(=O)c1c(NC(=O)c2cc(OC3CSC3)nn2-c2ncccc2Cl)c(C)cc2ccnn12 [Compound 156, 6-(1-(3-chloropyridin-2-yl)-3-(thietan-3-yloxy)-1H-pyrazole-5-carboxamido)-N-(2-methoxyethyl)-5-methylpyrazolo[1,5-a]pyridine-7-carboxamide] | – | – | – | > 70%
CCNC(=O)c1c(NC(=O)c2cc(OC3CSC3)nn2-c2ncccc2Cl)c(C)cc2ccnn12 [Compound 137, 6-(1-(3-chloropyridin-2-yl)-3-(thietan-3-yloxy)-1H-pyrazole-5-carboxamido)-N-ethyl-5-methylpyrazolo[1,5-a]pyridine-7-carboxamide] | – | – | > 70% | –
CCCNC(=O)c1c(NC(=O)c2cc(OC3CSC3)nn2-c2ncccc2Cl)c(C)cc2ccnn12 [Compound 108, 6-(1-(3-chloropyridin-2-yl)-3-(thietan-3-yloxy)-1H-pyrazole-5-carboxamido)-5-methyl-N-propylpyrazolo[1,5-a]pyridine-7-carboxamide] | – | – | > 70% | –
Cc1cc(Cl)cc(C(=O)NCC2CC2)c1NC(=O)c1cc(OC2C[S+]([O-])C2)nn1-c1ncccc1Cl (stereo not drawn) [Compound 129, N-(4-chloro-2-((cyclopropylmethyl)carbamoyl)-6-methylphenyl)-1-(3-chloropyridin-2-yl)-3-((1-oxidothietan-3-yl)oxy)-1H-pyrazole-5-carboxamide] | – | > 50% | – | –

From patent publication US12221436B2, “Anthranilamides, their use as insecticide and processes for preparing the same” (PI INDUSTRIES LTD., priority 2018, dated 2025)
